Article PMC4402707 (Neurotherapeutics : the journal of the American Society for …, 2009)
Like-named read-outs stand apart in the source and are kept apart here. Where a SMILES comes first, the peptide text is derived from it. [ ]: non-standard residue; d: D form. The star is where a group is joined. Fmoc = O=C(OCC1c2ccccc2-c2ccccc21)*; Cha = N[C@@H](CC1CCCCC1)C(=O)O; AMC = Cc1cc(=O)oc2cc(N*)ccc12

How the values were obtained:
[1] = tested on: CF-1 mice (seizures induced by 6 Hz corneal stimulation); conditions: cited from earlier work; for ED50, 6 Hz model, 32 mA (95% confidence interval) / ED50, 6 Hz model, 44 mA (95% confidence interval): ref Barton et al., 2001[19]
[2] = tested on: CF-1 mice (seizures induced by 6 Hz corneal stimulation); test: 6 Hz psychomotor seizure test; assay type: in vivo, mouse; conditions: 4 mg/kg i.p.
[3] = tested on: corneal kindled mouse (fully expressed secondarily generalized seizure); conditions: i.p.; ref Rowley et al., manuscript in preparation; cited from earlier work
[4] = tested on: galanin receptors GalR1 and GalR2; conditions: cited from earlier work; for Fold difference in affinity for GalR1 and GalR2: receptor subtype specificity
[5] = tested on: non-galanin receptors (5-HT-1A and 1B, D2 dopamine, ghrelin, melanocortin, NPY, μ-opioid receptors); conditions: at 10 μM, NPY (galnon only), μ-opioid (galmic only); cited from earlier work

## O=C1NC(=O)C(c2ccccc2)(c2ccccc2)N1 [Phenytoin, phenytoin]
[1]; i.p., 32 mA
  ED50, 6 Hz model, 32 mA (95% confidence interval): > 60 mg/kg
[1]; i.p.
  ED50, 6 Hz model, 44 mA (95% confidence interval): > 60 mg/kg

## Ac-YLLGPKK(Lys-P)K [NAX 5055 truncated]
[2]; 32 mA, tested across time
  Activity in 6 Hz 32 mA model (in words): inactive
[2]; 6 Hz 32 mA, CF-1 mice, 15 min, groups of four
  Mice protected from seizures / mice tested, 15′: 0/4
[2]; 6 Hz 32 mA, CF-1 mice, 30 min, groups of four
  Mice protected from seizures / mice tested, 30′: 0/4
[2]; 6 Hz 32 mA, CF-1 mice, 60 min, groups of four
  Mice protected from seizures / mice tested, 60′: 0/4
[2]; 6 Hz 32 mA, CF-1 mice, 120 min, groups of four
  Mice protected from seizures / mice tested, 120′: 0/4
[2]; 6 Hz 32 mA, CF-1 mice, 240 min, groups of four
  Mice protected from seizures / mice tested, 240′: 0/4

## CCC1(C)CC(=O)NC1=O (centres unmarked) [Ethosuximide, ethosuximide]
[1]; i.p.
  ED50, 6 Hz model, 44 mA (95% confidence interval): > 600 mg/kg

## NC(=O)N1c2ccccc2C=Cc2ccccc21 [CBZ, carbamazepine]
[3]
  Active dose in corneal kindled mouse model: 33 mg/kg

## Cc1cc(=O)oc2cc(NC(=O)[C@H](CCCCN)NC(=O)[C@H](CC3CCCCC3)NC(=O)OCC3c4ccccc4-c4ccccc43)ccc12 [galnon] (Fmoc-[Cha]-Lys-{AMC})
[4]
  Fold lower affinity for galanin receptors relative to the native peptide: 10,000-100,000 fold
  Fold difference in affinity for GalR1 and GalR2: 2-3 fold
[5]
  Interaction with non-galanin receptors: interact with a variety of non-galanin receptors

## COC(=O)[C@H](CCCCN)NC(=O)[C@]1(C)NC(=O)c2nc(oc2C)[C@](C)(C(=O)NC2c3ccccc3-c3ccccc32)NC(=O)c2nc(oc2C)[C@](C)(C(=O)NCC2CCCCC2)NC(=O)c2nc1oc2C [galmic]
[4]
  Fold lower affinity for galanin receptors relative to the native peptide: 10,000-100,000 fold
  Fold difference in affinity for GalR1 and GalR2: 2-3 fold
[5]
  Interaction with non-galanin receptors: interact with a variety of non-galanin receptors

## COC[C@@H](NC(C)=O)C(=O)NCc1ccccc1 [Lacosamide]
[1]; read-out: ED50, 6 Hz model, 32 mA (95% confidence interval), i.p., 32 mA, ref Stöhr et al., 2007[44]
  ED50: 9.9 mg/kg

## Nc1nnc(-c2cccc(Cl)c2Cl)c(N)n1 [Lamotrigine, lamotrigine]
[1]; i.p., 32 mA
  ED50, 6 Hz model, 32 mA (95% confidence interval): > 60 mg/kg
[1]; i.p.
  ED50, 6 Hz model, 44 mA (95% confidence interval): > 60 mg/kg

## GWTLNSAGYLLGPHAV-NH2 [Gal(1-16)]
[1]; 4 mg/kg i.p., 32 mA, ref Bulaj et al, 2008.[17]
  Activity in 6 Hz 32 mA model (in words): inactive
